The values below come from patent US11178868B2, “Alkynyl-substituted 3-phenylpyrrolidine-2,4-diones and use thereof as herbicides” (Bayer CropScience Aktiengesellschaft, priority 2015, dated 2021).

Format in all cases: in vivo
Experiment [1] deals with Setaria viridis. Briefly: Pre-emergence herbicidal effect. The note with it: scored visually after 3 weeks. The text has this: (§1) Seeds of monocotyledonous and dicotyledonous weed plants and crop plants are laid out in wood-fibre pots in sandy loam and covered with soil. The compounds according to the invention formulated in the form of wettable powders (WP) or as emulsion concentrates (EC) are then applied as aqueous suspension or emulsion at a water application rate of 600 to 800 I/ha (converted) with the addition of 0.2% wetting agent to the surface of the covering soil. After the treatment, the pots are placed in a greenhouse and kept under good growth conditions for the trial plants. The damage to the test plants is scored visually after a test period of 3 weeks by comparison with untreated controls (herbicidal activity in percent (%): 100% activity=the plants have died, 0% activity=like control plants).

The test system of a further experiment is Cyperus esculentus. Briefly: Pre-emergence herbicidal effect. The conditions noted are these: 320 g a.i./ha, scored visually after 3 weeks.
Description: as §1

In experiment [2] the test system is Avena fatua. Briefly: Pre-emergence herbicidal effect. The conditions noted are these: scored visually after 3 weeks.
Description: as §1

Experiment [3] concerns Lolium multiflorum. Briefly: Pre-emergence herbicidal effect. The conditions noted are these: scored visually after 3 weeks.
Description: as §1

The subject of experiment [4] is Echinochloa crus-galli. Description: Pre-emergence herbicidal effect. The note with it: scored visually after 3 weeks.
Description: as §1

The subject of experiment [5] is Alopecurus myosuroides. Briefly: Pre-emergence herbicidal effect. The conditions noted are these: scored visually after 3 weeks.
Description: as §1

Experiment [6] has as its system Setaria viridis. Briefly: Post-emergence herbicidal effect. The conditions noted are these: assessed visually after about 3 weeks. As to the method:
(§2) Seeds of monocotyledonous and dicotyledonous weed and crop plants are laid out in sandy loam in wood-fibre pots, covered with soil and cultivated in a greenhouse under good growth conditions. 2 to 3 weeks after sowing, the test plants are treated at the one-leaf stage. The compounds according to the invention, formulated in the form of wettable powders (WP) or as emulsion concentrates (EC), are then sprayed as aqueous suspension or emulsion at a water application rate of 600 to 800 I/ha (converted) with the addition of 0.2% of wetting agent onto the green parts of the plants. After the test plants have been left to stand in the greenhouse under optimal growth conditions for about 3 weeks, the action of the preparations is assessed visually in comparison to untreated controls (herbicidal action in percent (%): 100% activity=the plants have died, 0% activity=like control plants).

In experiment [7] the test system is Avena fatua. Briefly: Post-emergence herbicidal effect. The conditions noted are these: assessed visually after about 3 weeks. As to the method:
as §2

Experiment [8] has as its system Lolium multiflorum. Briefly: Post-emergence herbicidal effect. The conditions noted are these: assessed visually after about 3 weeks. As to the method: as §2
Another experiment has as its system Polygonum convolvulus. Briefly: Post-emergence herbicidal effect. The conditions noted are these: 80 g a.i./ha, assessed visually after about 3 weeks. As to the method: as §2
In a further experiment the test system is Amaranthus retroflexus. Description: Post-emergence herbicidal effect. The conditions noted are these: assessed visually after about 3 weeks. As to the method:
as §2

The subject of experiment [9] is Echinochloa crus-galli. Briefly: Post-emergence herbicidal effect. The note with it: assessed visually after about 3 weeks. As to the method: as §2
For experiment [10], the system named is Alopecurus myosuroides. Description: Post-emergence herbicidal effect. The note with it: assessed visually after about 3 weeks. As to the method: as §2

Turning to `CC#Cc1cc(C)c(C2=C(O)C3(CCCC(OCCOC)C3)NC2=O)c(C)c1` (centres unmarked) [Example D6], the “Herbicidal effect against [%] SETVI” value in the experiment on Setaria viridis [1] (80 g a.i./ha), in the experiment with Setaria viridis [1] (320 g a.i./ha), with Setaria viridis [6] (20 g a.i./ha) and in the experiment with Setaria viridis [6] (80 g a.i./ha) was 100% throughout. In addition, the “Herbicidal effect against [%] CYPES” value in the experiment on Cyperus esculentus stood at 90%. The “Herbicidal effect against [%] AVEFA” value with Avena fatua [2] (80 g a.i./ha), with Avena fatua [2] (320 g a.i./ha), with Avena fatua [7] (20 g a.i./ha) and in the experiment on Avena fatua [7] (80 g a.i./ha) was 100% throughout. The “Herbicidal effect against [%] LOLMU” value in the experiment on Lolium multiflorum [3] (80 g a.i./ha), in the experiment with Lolium multiflorum [3] (320 g a.i./ha), with Lolium multiflorum [8] (20 g a.i./ha) and in the experiment with Lolium multiflorum [8] (80 g a.i./ha) was 100% in each case. Moreover, the “Herbicidal effect against [%] ECHCG” value in the experiment on Echinochloa crus-galli [4] (80 g a.i./ha), in the experiment with Echinochloa crus-galli [4] (320 g a.i./ha), in the experiment on Echinochloa crus-galli [9] (20 g a.i./ha) and in the experiment with Echinochloa crus-galli [9] (80 g a.i./ha) was 100% in each case. The “Herbicidal effect against [%] ALOMY” value in the experiment on Alopecurus myosuroides [5] (80 g a.i./ha), with Alopecurus myosuroides [5] (320 g a.i./ha), with Alopecurus myosuroides [10] (20 g a.i./ha) and in the experiment with Alopecurus myosuroides [10] (80 g a.i./ha) was 100% in each case. Besides, the “Herbicidal effect against [%] POLCO” value in the experiment with Polygonum convolvulus came out at 80%. For the same molecule, the “Herbicidal effect against [%] AMARE” value with Amaranthus retroflexus (20 g a.i./ha) and with Amaranthus retroflexus (80 g a.i./ha) was 80% in each case.
For the molecule `CC#Cc1cc(C)c(C2=C(OC(=O)OCC)C3(CCCC(OCCOC)C3)NC2=O)c(C)c1` (centres unmarked) [Example P15], the “Herbicidal effect against [%] SETVI” value in the experiment on Setaria viridis [1] (80 g a.i./ha), with Setaria viridis [1] (320 g a.i./ha), in the experiment on Setaria viridis [6] (20 g a.i./ha) and in the experiment on Setaria viridis [6] (80 g a.i./ha) was 100% throughout. Also, the “Herbicidal effect against [%] AVEFA” value with Avena fatua [2] (80 g a.i./ha), in the experiment with Avena fatua [2] (320 g a.i./ha), in the experiment with Avena fatua [7] (20 g a.i./ha) and with Avena fatua [7] (80 g a.i./ha) was 100% throughout. For the same molecule, the “Herbicidal effect against [%] LOLMU” value with Lolium multiflorum [3] (80 g a.i./ha), in the experiment on Lolium multiflorum [3] (320 g a.i./ha), in the experiment with Lolium multiflorum [8] (20 g a.i./ha) and in the experiment with Lolium multiflorum [8] (80 g a.i./ha) was 100% each time. The “Herbicidal effect against [%] ECHCG” value in the experiment with Echinochloa crus-galli [4] (80 g a.i./ha), in the experiment on Echinochloa crus-galli [4] (320 g a.i./ha), in the experiment on Echinochloa crus-galli [9] (20 g a.i./ha) and in the experiment with Echinochloa crus-galli [9] (80 g a.i./ha) was 100% throughout. Besides, the “Herbicidal effect against [%] ALOMY” value with Alopecurus myosuroides [5] (80 g a.i./ha), in the experiment on Alopecurus myosuroides [5] (320 g a.i./ha), in the experiment on Alopecurus myosuroides [10] (20 g a.i./ha) and in the experiment with Alopecurus myosuroides [10] (80 g a.i./ha) was 100% each time. In the experiment on Polygonum convolvulus, the “Herbicidal effect against [%] POLCO” value is listed as 80%. The “Herbicidal effect against [%] AMARE” value in the experiment with Amaranthus retroflexus (20 g a.i./ha) and in the experiment on Amaranthus retroflexus (80 g a.i./ha) was 80% each time.
